Results taken from PMC10600239, “Selective MCL-1 inhibitor ABBV-467 is efficacious in tumor models but is associated with cardiac troponin increases in patients” (Communications Medicine, 2023).
Values joined by “and” are separate entries in the source; they are usually repeats but may differ in a detail not shown here. Equal values may be shown once.

Tests used:
[1] = test system: MV4-11-Red.Fluc; experiment: Systemic MV4-11-Red.Fluc model (bioluminescence, total flux); assay type: in vivo, mouse; design: bioluminescence signal, individual mouse (ear tag), 10 min post: unit: p/s; conditions: for bioluminescence signal, group Average, 10 min post / bioluminescence signal, individual mouse (ear tag), 10 min post: MV 4-11 red.fluc, A-1726694 q7dx3 IV, ABT-199 50mkd qdx21 PO
Protocol: All animal studies were conducted in accordance with the guidelines approved by the Institutional Animal Care and Use Committees of AbbVie. The research protocol was approved by In Vivo Pharmacology at AbbVie prior to study initiation but was not publicly registered or disclosed. Female C.B-17 SCID-beige mice (AMO-1, OPM-2, NCI-H929, and OCI-AML2 xenografts) and female NSG mice (MV4-11-Red.Fluc systemic) were purchased from Charles River Laboratories (Wilmington, MA). Animals were housed in a light cycle-controlled room with HEPA filtration at 22 °C. Animals had nesting and climbing cage topper as the primary environmental enrichment. Animals were inoculated subcutaneously in the right flank with 5 × 10^6 (AMO-1, OPM-2, NCI-H929, and OCI-AML2) or intravenous (IV) with 5 × 10^6 (MV4-11-Red.Fluc). The inoculation volume (0.2 mL) comprised a 50:50 mixture of cells in growth media and Matrigel (BD Biosciences) for subcutaneous injections and 100% phosphate-buffered saline for IV administration. All cell lines used in this publication were authenticated using IDEXX for STR profiling as well as their IMPACT and human IMPACT panels for pathogen screening. Electronic calipers were used to measure the length and width of each tumor 2 to 3 times per week. Tumor volume was estimated by applying the following equation: volume = length × width^2/2. All groups remained blinded during measurements and dosing; only veterinary staff were aware of group identity. When tumors reached approximately 200 mm^3, mice were randomized by match and distributed into treatment and control groups. All xenograft trials were conducted using 5 to 10 mice per group, and all mice were ear tagged and monitored individually throughout the studies. Any animal with a tumor above 2000 mm^3 or 15% loss in body weight was euthanized and removed from the study. Tumor burden in the systemic MV4-11-Red.Fluc experiment was measured using an IVIS® spectrum from PerkinElmer by taking the total photon flux of the entire dorsal side of an individual mouse. Ten minutes prior to imaging, animals received intraperitoneally 0.2 mL of a 15-mg/mL solution of D-Luciferin (PerkinElmer, Catalog #122799) formulated in 100% phosphate-buffered saline. Animals were anesthetized using 3.5% isoflurane and maintained using 2%. Six days after inoculation, animals were imaged and randomized into vehicle and treatment groups at a total flux of ~1 × 10^8. A background control mouse that was tumor naive but received D-Luciferin was placed in the upper left corner of each image. The total flux from this animal was subtracted from the total flux of each animal present in the image. […]

[2] = test system: OCI-AML2 xenografts; experiment: OCI-AML2 xenograft efficacy (tumor volume, body weight); conditions: venetoclax 25 mg/kg QD × 14, azacitidine 8 mg/kg Q7D × 3, or the combination of both
Protocol: All animal studies were conducted in accordance with the guidelines approved by the Institutional Animal Care and Use Committees of AbbVie. The research protocol was approved by In Vivo Pharmacology at AbbVie prior to study initiation but was not publicly registered or disclosed. Female C.B-17 SCID-beige mice (AMO-1, OPM-2, NCI-H929, and OCI-AML2 xenografts) and female NSG mice (MV4-11-Red.Fluc systemic) were purchased from Charles River Laboratories (Wilmington, MA). Animals were housed in a light cycle-controlled room with HEPA filtration at 22 °C. Animals had nesting and climbing cage topper as the primary environmental enrichment. Animals were inoculated subcutaneously in the right flank with 5 × 10^6 (AMO-1, OPM-2, NCI-H929, and OCI-AML2) or intravenous (IV) with 5 × 10^6 (MV4-11-Red.Fluc). The inoculation volume (0.2 mL) comprised a 50:50 mixture of cells in growth media and Matrigel (BD Biosciences) for subcutaneous injections and 100% phosphate-buffered saline for IV administration. […] Electronic calipers were used to measure the length and width of each tumor 2 to 3 times per week. Tumor volume was estimated by applying the following equation: volume = length × width^2/2. All groups remained blinded during measurements and dosing; only veterinary staff were aware of group identity. When tumors reached approximately 200 mm^3, mice were randomized by match and distributed into treatment and control groups. All xenograft trials were conducted using 5 to 10 mice per group, and all mice were ear tagged and monitored individually throughout the studies.
For combination studies, all compounds were administered within 30 min of each other.
The tumor growth delay (TGD) percentage was determined as the percentage increase of the median time period for the treatment group to reach an arbitrary tumor volume of 1000 mm^3 relative to the vehicle control group. […] A power analysis was conducted using historical data to determine the number of animals required to yield significance of 0.05 at a 30% difference. There were no animals excluded. Data from experiments in vivo were analyzed using the student’s t-test for TGI values and the Mann–Whitney U test for TGD using Excel and GraphPad Prism. Fisher’s exact test was used to probe significance of differences in response frequency.

## CC1(C)CCC(CN2CCN(c3ccc(C(=O)NS(=O)(=O)c4ccc(NCC5CCOCC5)c([N+](=O)[O-])c4)c(Oc4cnc5[nH]ccc5c4)c3)CC2)=C(c2ccc(Cl)cc2)C1 [venetoclax]
[1]; Day55, individual ROI (one per animal), background-subtracted
  Total Flux minus ROI 1 (background): 5.08E+11 p/s
[1]; Day55, individual ROI (one per animal, ROI 2-10), raw value
  Total Flux: 5.09E+11 p/s
[1]; day 6
  bioluminescence signal, group Average, 10 min post: 7.85E+07
  bioluminescence signal, individual mouse (ear tag), 10 min post: 6.21E+07 and 5.74E+07 and 4.57E+07 and 1.10E+08 and 9.71E+07 and 7.20E+07 and 8.40E+07 and 9.10E+07
[1]; day 10
  bioluminescence signal, group Average, 10 min post: 5.02E+08
  bioluminescence signal, individual mouse (ear tag), 10 min post: 3.02E+08 and 5.77E+08 and 2.27E+08 and 9.68E+08 and 7.24E+08 and 4.68E+08 and 3.50E+08 and 4.61E+08
[1]; day 13
  bioluminescence signal, group Average, 10 min post: 1.09E+09
[1]; day 17
  bioluminescence signal, group Average, 10 min post: 4.62E+09
  bioluminescence signal, individual mouse (ear tag), 10 min post: 3.54E+09 and 4.80E+09 and 3.65E+09 and 6.19E+09 and 6.79E+09 and 2.67E+09 and 4.40E+09 and 4.67E+09
[1]; day 20
  bioluminescence signal, group Average, 10 min post: 9.05E+09
  bioluminescence signal, individual mouse (ear tag), 10 min post: 8.51E+09 and 1.38E+10 and 5.28E+09 and 1.23E+10 and 6.88E+09 and 6.58E+09 and 8.42E+09 and 1.02E+10
[1]; day 24
  bioluminescence signal, group Average, 10 min post: 1.53E+10
  bioluminescence signal, individual mouse (ear tag), 10 min post: 9.16E+09 and 1.73E+10 and 6.56E+09 and 2.31E+10 and 2.87E+10 and 1.24E+10 and 1.46E+10 and 1.55E+10
[1]; day 27
  bioluminescence signal, group Average, 10 min post: 2.79E+10
  bioluminescence signal, individual mouse (ear tag), 10 min post: 2.48E+10 and 2.02E+10 and 1.49E+10 and 4.29E+10 and 4.73E+10 and 2.09E+10 and 3.23E+10 and 1.93E+10
[1]; day 31
  bioluminescence signal, group Average, 10 min post: 5.69E+10
[1]; day 34
  bioluminescence signal, group Average, 10 min post: 1.07E+11
[1]; day 38
  bioluminescence signal, group Average, 10 min post: 1.45E+11
[1]; day 41
  bioluminescence signal, group Average, 10 min post: 3.10E+11
  bioluminescence signal, individual mouse (ear tag), 10 min post: 2.65E+11 and 1.55E+11 and 4.70E+11 and 2.06E+11 and 5.84E+11
[1]; day 45
  bioluminescence signal, group Average, 10 min post: 6.43E+11
  bioluminescence signal, individual mouse (ear tag), 10 min post: 4.15E+11
[1]; day 48
  bioluminescence signal, group Average, 10 min post: 2.37E+11
  bioluminescence signal, individual mouse (ear tag), 10 min post: 4.43E+11
[1]; day 55
  bioluminescence signal, group Average, 10 min post: 8.71E+11
[2]
  effect on OCI-AML2 xenograft growth: no meaningful effect
